The values that follow come from PubChem BioAssay AID270 (DTP/NCI, 2004).

Where “and” joins values, the source holds several entries; their conditions need not be identical. Equal values may be shown once. Inconclusive results are not listed. *1 amine or outer side, *2 acyl side, *3 side chain or, on linkers, in order; H or OH if unused. Where a SMILES comes first, the peptide text is derived from it. Bridges are numbered along the chain shown (N, C = ends). [ ]: non-standard residue; d: D form. The star is where a group is joined. X2 = CC(C)C(C)C(C(=O)[*:2])N(C)[*:1]; Picolinoyl(3-OH) = O=C(c1ncccc1O)*; NMePhg = CN[CH](C(=O)O)c1ccccc1; Hyp = O=C(O)[CH]1C[CH](O)CN1; Sar = CNCC(=O)O

The experiment relates to BDF1 mice, s.c. Lewis lung carcinoma, T/C %. Kind of experiment: NCI In Vivo Anticancer Drug Screen. Data for tumor model Lewis Lung Carcinoma (subcutaneous) in B6D2F1 (BDF1) mice. In short, it runs like this: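 Tumor-bearing mice were treated with test compound, and either survival or tumor size was recorded. Values are the treated-group measurement divided by that of the vehicle-treated control group.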

The mark [1] stands for this setting: endpoint: median survival time, dose: 12.5 mg/kg/injection, schedule: Q01DX009 (ip), vehicle: Klucel (hydroxypropylcellulose) (HPC), higher = longer survival.

Regarding `C[C@]12C=CC(=O)C=C1CC[C@@H]1[C@@H]2[C@@H](O)C[C@@]2(C)[C@H]1CC[C@]2(O)C(=O)COC(=O)C1CCCC1`, the T/C by setting is: (endpoint: mean tumor weight, dose: 9.0 mg/kg/injection, schedule: Q01DX011 (sc), vehicle: steriod suspending solution, higher = larger tumour) 68 % of control; (endpoint: mean tumor weight, dose: 13.0 mg/kg/injection, schedule: Q01DX011 (sc), vehicle: steriod suspending solution, higher = larger tumour) 51 % of control; (endpoint: mean tumor weight, dose: 20.0 mg/kg/injection, schedule: Q01DX011 (sc), vehicle: steriod suspending solution, higher = larger tumour) 77 % of control; (endpoint: mean tumor weight, dose: 30.0 mg/kg/injection, schedule: Q01DX011 (sc), vehicle: steriod suspending solution, higher = larger tumour) 52 % of control.

Consider `O=NN(CCCl)C(=O)Nc1cc2c3ccccc3ccc2c2ccccc12`, for which the T/C was 95 % of control (endpoint: median survival time, dose: 3.12 mg/kg/injection, schedule: Q01DX009 (ip), vehicle: Klucel (hydroxypropylcellulose) (HPC), higher = longer survival); 100 % of control (endpoint: median survival time, dose: 6.25 mg/kg/injection, schedule: Q01DX009 (ip), vehicle: Klucel (hydroxypropylcellulose) (HPC), higher = longer survival); 96 % of control under setting [1].

Consider `CCCCCCCCCCCCNCCCCCCCCCCCC`, for which the T/C reads like this: (endpoint: mean tumor weight, dose: 2.5 mg/kg/injection, schedule: Q01DX011 (ip), vehicle: other, higher = larger tumour) 78 % of control; (endpoint: mean tumor weight, dose: 5.0 mg/kg/injection, schedule: Q01DX011 (ip), vehicle: other, higher = larger tumour) 67 % of control; (endpoint: mean tumor weight, dose: 10.0 mg/kg/injection, schedule: Q01DX011 (ip), vehicle: other, higher = larger tumour) 55 % of control.

For `COc1cccc(C=O)c1O`, the T/C runs as follows: (endpoint: mean tumor weight, dose: 12.5 mg/kg/injection, schedule: Q01DX011 (ip), vehicle: carboxymethylcellulose (CMC), higher = larger tumour) 106 % of control; (endpoint: mean tumor weight, dose: 25.0 mg/kg/injection, schedule: Q01DX011 (ip), vehicle: carboxymethylcellulose (CMC), higher = larger tumour) 58 % of control; (endpoint: mean tumor weight, dose: 50.0 mg/kg/injection, schedule: Q01DX011 (ip), vehicle: carboxymethylcellulose (CMC), higher = larger tumour) 88 % of control.

For `N=C(N)N`, the T/C reads like this: (endpoint: mean tumor weight, dose: 100.0 mg/kg/injection, schedule: Q01DX011 (ip), vehicle: saline, higher = larger tumour) 114 % of control; (endpoint: mean tumor weight, dose: 200.0 mg/kg/injection, schedule: Q01DX011 (ip), vehicle: saline, higher = larger tumour) 89 % of control.

On to `Nc1ncn(C2CC(O)C(CO)O2)c(=O)n1` (stereo unspecified), for which the T/C is, setting by setting: (endpoint: median survival time, dose: 0.05 mg/kg/injection, schedule: Q01DX009 (ip), vehicle: saline, higher = longer survival) 102 % of control; (endpoint: median survival time, dose: 0.1 mg/kg/injection, schedule: Q01DX009 (ip), vehicle: saline, higher = longer survival) 102 % of control and 109 % of control; (endpoint: median survival time, dose: 0.2 mg/kg/injection, schedule: Q01DX009 (ip), vehicle: saline, higher = longer survival) 109 % of control and 112 % of control; (endpoint: median survival time, dose: 0.8 mg/kg/injection, schedule: Q01DX009 (ip), vehicle: Klucel (hydroxypropylcellulose) (HPC), higher = longer survival) 167 % of control.

With `O=C(O)C(=O)c1ccc(-c2ccccc2)cc1`, the T/C by setting is: (endpoint: mean tumor weight, dose: 35.0 mg/kg/injection, schedule: Q01DX011 (ip), vehicle: methylcellulose (MC), higher = larger tumour) 82 % of control; (endpoint: mean tumor weight, dose: 50.0 mg/kg/injection, schedule: Q01DX011 (ip), vehicle: methylcellulose (MC), higher = larger tumour) 68 % of control; (endpoint: mean tumor weight, dose: 75.0 mg/kg/injection, schedule: Q01DX011 (ip), vehicle: methylcellulose (MC), higher = larger tumour) 52 % of control; (endpoint: mean tumor weight, dose: 110.0 mg/kg/injection, schedule: Q01DX011 (ip), vehicle: methylcellulose (MC), higher = larger tumour) 52 % of control.

Take `COC1C(O)CC(OC2CC(OC3CC(O[C@@H]4C(=O)c5c(cc6cc(OC7CC(OC8CC(O)C(O)C(C)O8)C(O)C(C)O7)c(C)c(O)c6c5O)C[C@H]4[C@H](OC)C(=O)[C@@H](O)[C@@H](C)O)OC(C)C3O)OC(C)C2O)OC1C` (stereo partly specified): the T/C is, setting by setting: (endpoint: median survival time, dose: 37.5 micrograms/kg/injection, schedule: Q01DX009 (ip), vehicle: water, higher = longer survival) 110 % of control; (endpoint: median survival time, dose: 75.0 micrograms/kg/injection, schedule: Q01DX009 (ip), vehicle: water, higher = longer survival) 118 % of control; (endpoint: median survival time, dose: 150.0 micrograms/kg/injection, schedule: Q01DX009 (ip), vehicle: water, higher = longer survival) 86 % of control.

As for `CCN(CC)CCCC(C)Nc1c2ccc(Cl)cc2nc2cc(Cl)ccc12` (stereo unspecified), the T/C runs as follows: under setting [1], 105 % of control; (endpoint: median survival time, dose: 25.0 mg/kg/injection, schedule: Q01DX009 (ip), vehicle: Klucel (hydroxypropylcellulose) (HPC), higher = longer survival) 97 % of control; (endpoint: median survival time, dose: 50.0 mg/kg/injection, schedule: Q01DX009 (ip), vehicle: Klucel (hydroxypropylcellulose) (HPC), higher = longer survival) 105 % of control.

With `CC(=O)[C@H]1CC[C@H]2[C@@H]3CCC4=CC(=O)CC[C@]4(C)[C@H]3CC[C@]12C`, the T/C (endpoint: median survival time, dose: 12.5 mg/kg/injection, schedule: Q02DX009 (ip), vehicle: Klucel (hydroxypropylcellulose) (HPC), higher = longer survival) was 99 % of control; the T/C (endpoint: median survival time, dose: 25.0 mg/kg/injection, schedule: Q02DX009 (ip), vehicle: Klucel (hydroxypropylcellulose) (HPC), higher = longer survival) is 107 % of control; the T/C (endpoint: median survival time, dose: 50.0 mg/kg/injection, schedule: Q02DX009 (ip), vehicle: Klucel (hydroxypropylcellulose) (HPC), higher = longer survival) was 90 % of control; the T/C (endpoint: median survival time, dose: 100.0 mg/kg/injection, schedule: Q02DX009 (ip), vehicle: Klucel (hydroxypropylcellulose) (HPC), higher = longer survival) is 95 % of control; the T/C (endpoint: median survival time, dose: 200.0 mg/kg/injection, schedule: Q02DX009 (ip), vehicle: Klucel (hydroxypropylcellulose) (HPC), higher = longer survival) was 101 % of control; the T/C (endpoint: median survival time, dose: 400.0 mg/kg/injection, schedule: Q02DX009 (ip), vehicle: Klucel (hydroxypropylcellulose) (HPC), higher = longer survival) was 96 % of control.

Turning to `CC(C)CC1NC(=O)C(NC(=O)c2ncccc2O)C(C)OC(=O)C(c2ccccc2)N(C)C(=O)C(C)NC(=O)C(C(C)C(C)C)N(C)C(=O)CN(C)C(=O)C2CC(O)CN2C1=O` (stereo unspecified) ({Picolinoyl(3-OH)}-TL[Hyp][Sar][X2]A[NMePhg]; ester 1-C; configuration not given here), the T/C was 90 % of control (endpoint: mean tumor weight, dose: 5.3 mg/kg/injection, schedule: Q01DX011 (ip), vehicle: saline, higher = larger tumour); 86 % of control (endpoint: mean tumor weight, dose: 8.0 mg/kg/injection, schedule: Q01DX011 (ip), vehicle: saline, higher = larger tumour); 88 % of control (endpoint: mean tumor weight, dose: 12.0 mg/kg/injection, schedule: Q01DX011 (ip), vehicle: saline, higher = larger tumour); 122 % of control (endpoint: mean tumor weight, dose: 18.0 mg/kg/injection, schedule: Q01DX011 (ip), vehicle: saline, higher = larger tumour).

`CC1=C2C(=CC(C)(C)[C@@H]2O)C(=O)[C@](C)(O)C12CC2`: the T/C is, setting by setting: (endpoint: mean tumor weight, dose: 0.12 mg/kg/injection, schedule: Q01DX011 (ip), vehicle: saline, higher = larger tumour) 61 % of control; (endpoint: mean tumor weight, dose: 0.18 mg/kg/injection, schedule: Q01DX011 (ip), vehicle: saline, higher = larger tumour) 92 % of control; (endpoint: mean tumor weight, dose: 0.26 mg/kg/injection, schedule: Q01DX011 (ip), vehicle: saline, higher = larger tumour) 73 % of control; (endpoint: mean tumor weight, dose: 0.4 mg/kg/injection, schedule: Q01DX011 (ip), vehicle: saline, higher = larger tumour) 76 % of control; (endpoint: mean tumor weight, dose: 0.6 mg/kg/injection, schedule: Q01DX011 (ip), vehicle: saline, higher = larger tumour) 19 % of control.

`COC(C(=O)C(O)C(C)O)C1Cc2cc3cc(OC4CC(OC5CC(O)C(O)C(C)O5)C(O)C(C)O4)c(C)c(O)c3c(O)c2C(=O)C1OC1CC(OC2CC(O)C(OC3CC(C)(O)C(O)C(C)O3)C(C)O2)C(O)C(C)O1` (stereo unspecified): the T/C (endpoint: median survival time, dose: 0.06 mg/kg/injection, schedule: Q01DX009 (ip), vehicle: saline, higher = longer survival) is 93 % of control; the T/C (endpoint: median survival time, dose: 0.13 mg/kg/injection, schedule: Q01DX009 (ip), vehicle: saline, higher = longer survival) is 93 % of control and 123 % of control; the T/C (endpoint: median survival time, dose: 0.25 mg/kg/injection, schedule: Q01DX009 (ip), vehicle: saline, higher = longer survival) is 96 % of control; the T/C (endpoint: median survival time, dose: 0.5 mg/kg/injection, schedule: Q01DX009 (ip), vehicle: saline, higher = longer survival) was 94 % of control.

As for `OC1c2cc(Cl)ccc2-c2c(Cl)cc(Cl)cc21` (stereo unspecified), the T/C is, setting by setting: (endpoint: mean tumor weight, dose: 63.0 mg/kg/injection, schedule: Q01DX011 (ip), vehicle: carboxymethylcellulose (CMC), higher = larger tumour) 64 % of control; (endpoint: mean tumor weight, dose: 125.0 mg/kg/injection, schedule: Q01DX011 (ip), vehicle: carboxymethylcellulose (CMC), higher = larger tumour) 58 % of control; (endpoint: mean tumor weight, dose: 190.0 mg/kg/injection, schedule: Q01DX011 (ip), vehicle: carboxymethylcellulose (CMC), higher = larger tumour) 61 % of control.
